System: mammal
Conditions: in vivo

## poly-oxygenated aluminum hydroxide [Ox66™]
  negative effects in toxicology studies: does not create any negative effects

Reference: US10278988B2, “Reducing the proliferation of carcinoma cells by administration of a poly-oxygenated metal hydroxide” (priority 2016, dated 2019)
